Data on 23 compounds can be found in patent US20200181104A1, “SSAO INHIBITORS AND USES THEREOF” (METACRINE, INC., priority 2018, published 2020).

One may read the IC50 as the concentration at which inhibition is half-maximal.

Counter-ions that a name gives are not always drawn.

This test has as its target T1, Recombinant Human SSAO/VAP-1/AOC3 (Homo sapiens, UniProt Q16853).
T1 construct: purchased R&D systems 3957-AO
T1 sequence (Q16853 1-763): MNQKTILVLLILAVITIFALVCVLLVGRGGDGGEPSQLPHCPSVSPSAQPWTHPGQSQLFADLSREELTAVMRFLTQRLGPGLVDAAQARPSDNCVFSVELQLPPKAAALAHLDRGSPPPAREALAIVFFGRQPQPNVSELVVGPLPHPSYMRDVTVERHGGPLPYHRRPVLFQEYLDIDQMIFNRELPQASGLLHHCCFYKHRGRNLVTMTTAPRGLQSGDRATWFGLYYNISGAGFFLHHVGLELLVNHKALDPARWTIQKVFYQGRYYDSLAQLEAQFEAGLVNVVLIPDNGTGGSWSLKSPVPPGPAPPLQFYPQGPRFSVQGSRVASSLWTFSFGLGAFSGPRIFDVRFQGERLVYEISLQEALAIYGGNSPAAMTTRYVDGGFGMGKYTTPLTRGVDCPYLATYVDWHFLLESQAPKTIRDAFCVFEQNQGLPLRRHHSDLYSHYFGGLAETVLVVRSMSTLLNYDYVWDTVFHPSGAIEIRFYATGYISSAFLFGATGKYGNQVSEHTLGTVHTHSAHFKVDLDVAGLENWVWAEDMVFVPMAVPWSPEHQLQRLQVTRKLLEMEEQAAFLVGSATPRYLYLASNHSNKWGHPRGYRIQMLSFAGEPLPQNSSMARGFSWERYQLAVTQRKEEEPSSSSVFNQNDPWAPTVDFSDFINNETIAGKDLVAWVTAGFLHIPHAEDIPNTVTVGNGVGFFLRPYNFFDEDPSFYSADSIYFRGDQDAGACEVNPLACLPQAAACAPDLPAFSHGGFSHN
Nature of the test: Human Semicarbazide-Sensitive Amine Oxidase (SSAO) Assay. Type of test: biochemical. The settings on record: recombinant enzyme, 30 minutes preincubation at 37° C., benzylamine substrate, Amplex Ultra Red/HRP fluorescence. In a few lines: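 Recombinant human SSAO/VAP-1 (2.5 μg/ml working stock in 50 mM HEPES) preincubated with compound 30 min at 37 °C over a 6-10 point CRC. Benzylamine substrate starts the reaction. H2O2 read kinetically over 30-120 min via Amplex Ultra Red/HRP fluorescence (ex 544/em 590 nm) to derive IC50.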
For `NC/C(=C\F)COc1ccc(C23CCC(C(=O)N4CCC4)(CC2)CC3)cc1` [Compound 2.40, (E)-(4-(4-((2-(aminomethyl)-3-fluoroallyl)oxy)phenyl)bicyclo [2.2.2]octan-1-yl)(azetidin-1-yl)methanone], the IC50 was ≤ 10 nM.

On to `CC1(CNC(=O)C23CCC(c4ccc(OC/C(=C/F)CN)cc4)(CC2)CC3)CCOCC1` [Compound 2.36, (E)-4-(4-((2-(aminomethyl)-3-fluoroallyl)oxy)phenyl)-N-((4-methyltetrahydro-2H-pyran-4-yl)methyl)bicyclo[2.2.2]octane-1-carboxamide], for which the IC50 was ≤ 10 nM.

Turning to `NC/C(=C\F)COc1ccc(C23CCC(C(=O)N4CC(O)(C(F)(F)F)C4)(CC2)CC3)cc1` [Compound 2.53, (E)-(4-(4-((2-(aminomethyl)-3-fluoroallyl)oxy)phenyl)bicyclo [2.2.2]octan-1-yl)(3-hydroxy-3-(trifluoromethyl)azetidin-1-yl)methanone], the IC50 is ≤ 10 nM.

Consider `NC/C(=C\F)COc1ccc(C23CCC(C(=O)N4CC[C@@H]4CO)(CC2)CC3)cc1` [Compound 2.78, (R,E)-(4-(4-((2-(aminomethyl)-3-fluoroallyl)oxy)phenyl)bicyclo [2.2.2]octan-1-yl)(2-(hydroxymethyl)azetidin-1-yl)methanone], for which the IC50 is ≤ 10 nM.

As for `CO[C@H]1CCC[C@@H](NC(=O)C23CCC(c4ccc(OC/C(=C/F)CN)cc4)(CC2)CC3)C1` [Compound 2.116, 4-(4-(((E)-2-(aminomethyl)-3-fluoroallyl)oxy)phenyl)-N-((1R,3S)-3-methoxycyclohexyl)bicyclo [2.2.2]octane-1-carboxamide], the IC50 is ≤ 10 nM.

`NC/C(=C\F)COc1ccc(C23CCC(C(=O)NCC4(CO)CCOCC4)(CC2)CC3)cc1` [Compound 2.63, (E)-4-(4-((2-(aminomethyl)-3-fluoroallyl)oxy)phenyl)-N-((4-(hydroxymethyl)tetrahydro-2H-pyran-4-yl)methyl)bicyclo[2.2.2]octane-1-carboxamide]: the half-inhibitory concentration (IC50) was ≤ 10 nM.

Consider `COc1cccc(CNC(=O)C23CCC(c4ccc(OC/C(=C/F)CN)cc4)(CC2)CC3)c1` [Compound 2.127, (E)-4-(4-((2-(aminomethyl)-3-fluoroallyl)oxy)phenyl)-N-(3-methoxybenzyl)bicyclo[2.2.2] octane-1-carboxamide], for which the IC50 was ≤ 10 nM.

As to `NC/C(=C\F)COc1ccc(C23CCC(C(=O)N4CC(F)(CO)C4)(CC2)CC3)cc1` [Compound 2.60, (E)-(4-(4-((2-(aminomethyl)-3-fluoroallyl)oxy)phenyl)bicyclo[2.2.2]octan-1-yl)(3-fluoro-3-(hydroxymethyl)azetidin-1-yl)methanone], the IC50 is ≤ 10 nM.

As for `NC/C(=C\F)COc1ccc(C23CCC(C(=O)NCc4nnn[nH]4)(CC2)CC3)cc1` [Compound 2.09, (E)-N-((1H-tetrazol-5-yl)methyl)-4-(4-((2-(aminomethyl)-3-fluoroallyl)oxy)phenyl) bicyclo[2.2.2]octane-1-carboxamide], the half-maximal inhibitory concentration (IC50) is ≤ 10 nM.

As to `NC/C(=C\F)COc1ccc(C23CCC(C(=O)O)(CC2)CC3)cc1` [Compound 2.05, (E)-4-(4-((2-(amino-methyl)-3-fluoroallyl)oxy)phenyl) bicyclo[2.2.2]octane-1-carboxylic acid], the 50% inhibitory concentration (IC50) fell in the range of 10 to 100 nM.

As for `NC/C(=C\F)COc1ccc(C23CCC(C(=O)N4CCOCC4)(CC2)CC3)cc1` [Compound 2.07], the concentration for half-maximal inhibition (IC50) was ≤ 10 nM.

In the case of `CCOC1CC(NC(=O)C23CCC(c4ccc(OC/C(=C/F)CN)cc4)(CC2)CC3)C1` (centres unmarked) [Compound 2.146, 4-(4-(((E)-2-(aminomethyl)-3-fluoroallyl)oxy)phenyl)-N-((1r,3r)-3-ethoxycyclobutyl)bicyclo[2.2.2] octane-1-carboxamide], the IC50 was ≤ 10 nM.

For the compound `NC/C(=C\F)COc1ccc(C23CCC(C(=O)NCC4(O)CCC4)(CC2)CC3)cc1` [Compound 2.96, (E)-4-(4-((2-(aminomethyl)-3-fluoroallyl)oxy)phenyl)-N-((1-hydroxycyclobutyl)methyl) bicyclo[2.2.2]octane-1-carboxamide], the IC50 was ≤ 10 nM.

For `CC(C)OC1CN(C(=O)C23CCC(c4ccc(OC/C(=C/F)CN)cc4)(CC2)CC3)C1` [Compound 2.56, (E)-(4-(4-((2-(aminomethyl)-3-fluoroallyl)oxy)phenyl)bicyclo [2.2.2]octan-1-yl)(3-isopropoxyazetidin-1-yl)methanone], the IC50 was ≤ 10 nM.

As to `NC/C(=C\F)COc1ccc(C23CCC(C(=O)NCC(F)F)(CC2)CC3)cc1` [Compound 2.113, (E)-4-(4-((2-(aminomethyl)-3-fluoroallyl)oxy)phenyl)-N-(2,2-difluoroethyl)bicyclo[2.2.2] octane-1-carboxamide], the IC50 was ≤ 10 nM.

As for `COCCOCCNC(=O)C12CCC(c3ccc(OC/C(=C/F)CN)cc3)(CC1)CC2` [Compound 2.32, (E)-4-(4-((2-(aminomethyl)-3-fluoroallyl)oxy)phenyl)-N-(2-(2-methoxyethoxy)ethyl) bicyclo[2.2.2]octane-1-carboxamide], the 50% inhibitory concentration (IC50) is ≤ 10 nM.

As for `CC(C)NC(=O)C12CC3CC(C1)CC(c1ccc(OC/C(=C/F)CN)cc1)(C3)C2` [Compound 6.04, (E)-3-(4-((2-(aminomethyl)-3-fluoroallyl)oxy)phenyl)-N-isopropyladamantane-1-carboxamide], the IC50 was ≤ 10 nM.

In the case of `NC/C(=C\F)COc1ccc(C23CCCC(C(=O)NC4CCOCC4)(CC2)CC3)cc1` [Compound 10.01, (E)-5-(4-((2-(Aminomethyl)-3-fluoroallyl)oxy)phenyl)-N-(tetrahydro-2H-pyran-4-yl)bicyclo[3.2.2]nonane-1-carboxamide Hydrochloride], the IC50 is ≤ 10 nM.

With `NC/C(=C\F)COc1ccc(C23CCC(C(=O)NC4CCOC4)(CC2)CC3)cc1` (centres unmarked) [Compound 2.21, (E)-4-(4-((2-(amino-methyl)-3-fluoroallyl)oxy)phenyl)-N-(tetrahydrofuran-3-yl)bicyclo[2.2.2]octane-1-carboxamide], the half-inhibitory concentration (IC50) is ≤ 10 nM.

For the compound `COC1(CCNC(=O)C23CCC(c4ccc(OC/C(=C/F)CN)cc4)(CC2)CC3)CCC1` [Compound 2.147, (E)-4-(4-((2-(aminomethyl)-3-fluoroallyl)oxy)phenyl)-N-(2-(1-methoxycyclobutyl)ethyl) bicyclo[2.2.2]octane-1-carboxamide], the IC50 was ≤ 10 nM.

On to `CC(C)NC(=O)C12CCC(c3ccc(OC/C(=C/F)CN)cc3)(CC1)CC2` [Compound 2.23, (E)-4-(4-((2-(aminomethyl)-3-fluoroallyl)oxy)phenyl)-N-isopropylbicyclo [2.2.2]octane-1-carboxamide], for which the half-inhibitory concentration (IC50) was ≤ 10 nM.

Take `COCC1(NC(=O)C23CCC(c4ccc(OC/C(=C/F)CN)cc4)(CC2)CC3)CCOCC1` [Compound 2.86, (E)-4-(4-((2-(aminomethyl)-3-fluoroallyl)oxy)phenyl)-N-(4-(methoxymethyl)tetrahydro-2H-pyran-4-yl)bicyclo[2.2.2]octane-1-carboxamide]: the IC50 was ≤ 10 nM.

Turning to `NC/C(=C\F)COc1ccc(C23CCC(C(=O)NCCc4nnn[nH]4)(CC2)CC3)cc1` [Compound 2.11, (E)-N-(2-(1H-tetrazol-5-yl)ethyl)-4-(4-((2-(aminomethyl)-3-fluoroallyl)oxy)phenyl) bicyclo[2.2.2]octane-1-carboxamide], the half-inhibitory concentration (IC50) was ≤ 10 nM.
